“Also recorded” adds a separate entry of the source. Like-named read-outs stand apart in the source and are kept apart here.
What was measured:
[1] = system: mouse model of CLP-induced septic shock; experiment: Survival in CLP-induced sepsis model, inhibitors given intraperitoneally; type: in vivo, male C57BL/6J mice; conditions: for Survival (in words): i.p. 1 h after CLP, SAHA 50 mg/kg, Cl-amidine 80 mg/kg, up to 10 days, compared with DMSO vehicle
Procedure: Three experiments were carried out. In experiment I, HL-60 neutrophilic cells grown on a coverslip were treated with LPS (100 ng/ml) in the presence or absence of SAHA (5 […]]) for 3 h, and subjected to immuno-staining with anti-Cit H3 antibody to assess effect of SAHA on Cit H3 production under a fluorescence microscope. The ratio of Cit H3 positive cells was calculated as mean±SD (n=3). In experiment II, male C57BL/6J mice were subjected to CLP, and 1 hour later randomly divided into three groups for intraperitoneal injection as follows: (1) dimethyl sulfoxide (DMSO), (2) SAHA (50 mg/kg) in DMSO, and ([…]). In a separate experiment III, the male C57BL/6J mice were divided into control and treatment groups, and subjected to CLP. One hour later, immunoglobulin (IgG) and Cit H3 antibody (20 mg/kg iv; n=5/group) were injected into the control and treatment groups, respectively. All survival was monitored for 5-10 days.
Animals. Male C57B1/6J mice (6-8 weeks) weighing 25-30 g were purchased from Jackson Labs (Bar Harbor, Me.). All animals were housed in plastic cages and had access to chow and water throughout the experiment. They were kept at room temperature (24±2° C.) and exposed to alternative cycles of 12 h light and darkness. During the experiments the animals were monitored up to 10 days, and survival rate was compared between the experimental and control groups.
CLP-induced sepsis model. The CLP murine model,^15 modified as described previously, was used to induce fecal peritonitis.^16 In brief, peritoneal cavity was opened under inhaled isoflurane anesthesia. […]
Administration of inhibitors and experimental design. […] Mortality was recorded for up to 10 days post procedure.
Statistical analysis. Statistical differences were determined by Student t tests and ANOVA for two group and multiple group comparisons respectively (SPSS™ statistical software package, Chicago, Ill.). Kaplan-Meier survival curves were analyzed by using the MedCalc™ Statistical Software (Mariakerke, Belgium) for the in vivo studies. […]

[2] = system: collagen-induced arthritis; conditions: murine; cited from earlier work
Cit H3 = experiment: Production of Cit H3 after inhibition of PAD activity (data not shown)
HL-60 neutrophilic cells = experiment: LPS-induced Cit H3 production and NETs formation in HL-60 cells, immunostaining with anti-Cit H3 antibody; type: cell-based; conditions: LPS 100 ng/ml, 3 h
Procedure: Three experiments were carried out. In experiment I, HL-60 neutrophilic cells grown on a coverslip were treated with LPS (100 ng/ml) in the presence or absence of SAHA (5 […]]) for 3 h, and subjected to immuno-staining with anti-Cit H3 antibody to assess effect of SAHA on Cit H3 production under a fluorescence microscope. The ratio of Cit H3 positive cells was calculated as mean±SD (n=3). In experiment II, male C57BL/6J mice were subjected to CLP, and 1 hour later randomly divided into three groups for intraperitoneal injection as follows: (1) dimethyl sulfoxide (DMSO), (2) SAHA (50 mg/kg) in DMSO, and (3) Cl-amidine ([…]) in DMSO (n=10/group). In a separate experiment III, the male C57BL/6J mice were divided into control and treatment groups, and subjected to CLP. One hour later, immunoglobulin (IgG) and Cit H3 antibody (20 mg/kg iv; n=5/group) were injected into the control and treatment groups, respectively. All survival was monitored for 5-10 days.
Cell culture and treatment. HL-60 cells obtained from American Type Culture Collection (ATCC) were maintained in Iscove's modified DMEM medium (Invitrogen Life Technologies, Carlsbad, Calif.) supplemented with 20% fetal bovine serum (FBS). […] The ratio of Cit H3 positive stained cells to all cells was counted and calculated as mean±SD from three individual experiments.

LPS-induced shock = conditions: rodent; cited from earlier work
[3] = system: mouse model of CLP-induced septic shock; conditions: literature reference 10; cited from earlier work

Structure (SMILES)	Survival ([1]; 80 mg/kg i.p. 1 h after CLP, monitored 10 days, n=10, DMSO vehicle 0%) [%]	Survival (in words) [1]	Severity of collagen-induced arthritis [2]	Production of Cit H3 (Cit H3)	LPS-induced Cit H3 production (ratio of Cit H3 positive cells to all cells) (HL-60 neutrophilic cells; ATRA-differentiated HL-60 cells, with or without SAHA, n=3, P<0.05)	NETs formation after LPS insult (HL-60 neutrophilic cells; HL-60 neutrophilic cells)	Survival (LPS-induced shock)	Survival [3]
NC(=O)[C@H](CCCN=C(N)CCl)NC(=O)c1ccccc1 [Cl-amidine]	42.5	notably improved long term survival; also recorded: significantly improved survival	reduce the severity	reduce the production of Cit H3	–	–	–	–
O=C(CCCCCCC(=O)Nc1ccccc1)NO [SAHA, suberoylanilide hydroxamic acid]	–	notably improved long term survival	–	–	inhibited H3 citrullination significantly; also recorded: suppresses LPS-induced Cit H3 production	significantly inhibited	significantly improves survival	improves survival
